In patent US12134784B2, “Method for preparing intestinal tract cell layer derived from pluripotent stem cell” (PUBLIC UNIVERSITY CORPORATION NAGOYA CITY UNIVERSITY, priority 2018, dated 2024):

Assays:
[1] = system: human iPS cell-derived intestinal organoid; test: Inflammatory bowel disease model using intestinal organoid (TNF-α addition); format: cell-based
Method: (A) Protocol for preparation of an inflammatory bowel disease model. (B) The mRNA expression analysis of an intestinal organoid in the cases of TNF-α and infliximab addition. Average±S.D. (n=3). The mRNA expression level of the control was regarded as 1. (C) Immunofluorescent staining of an intestinal organoid in the cases of TNF-α and infliximab addition. DAPI: Nuclear staining. Scale bar: 50 μm.
(§1) To prepare an inflammatory bowel disease model and a fibrosis model, 30 ng/mL TNF-α and 30 ng/mL TNF-α+2 ng/mL TGF-β were added for 96 hours and 48 hours from Day 34 after completion of differentiation induction, respectively. To suppress these reactions, 100 ng/mL infliximab (anti-TNF-α antibody) for the inflammatory bowel disease model and 20 μM SB431542 or 20 μM Repsox serving as a TGF-β inhibitor, for fibrosis model were added, respectively, for the same length of time as above. Note that, to enhance the function of an intestinal organoid, PD98059, 5-aza-2′-deoxycytidine, A-83-01 and N-[(3,5-difluorophenyl) acetyl]-L-alanyl-2-phenyl-1,l-dimethylethylester-glycine (DAPT) were added from Day 19 after initiation of differentiation induction to the completion of differentiation. The addition effects in these cases were checked.
Whether an inflammatory bowel disease model can be prepared by using an intestinal organoid prepared by a new differentiation induction method was investigated by adding a main cause, i.e., an inflammatory cytokine, TNF-α, from Day 34 after completion of differentiation induction up to 96 hours (FIG. 7A). The expressions of villin and MUC2 gene decreased by addition of TNF-α; however, the expression of TNF-α increased. The decrease/increase in expression was suppressed by addition of an anti-TNF-α antibody, infliximab (FIG. 7B). Subsequently, expressions of a tight junction protein and an apoptosis marker were confirmed by immunofluorescent staining. It was observed that a tight junction structure is destroyed by addition of TNF-α. The number of cells positive to Caspase-3 increased. These changes were not found in an infliximab addition group (FIG. 7C). In inflammatory bowel disease, it is reported that an inflammatory cytokine affects in-vivo intestinal epithelial cells to destroy tight junction, with the result that the number of mucus secretory cells, i.e., goblet cells, decreases.

CYP3A4 [2] = test: CYP3A4 metabolic activity of human intestinal organoid (midazolam, LC-MS/MS); details: 5 μmol/L midazolam, 24 hours; addition of ketoconazole
[3] = system: human iPS cell-derived intestinal organoid; test: Fibrosis model using intestinal organoid (TNF-α and TGF-β addition); format: cell-based; details: 20 μM inhibitor with 30 ng/mL TNF-α+2 ng/mL TGF-β, 48 hours
Method: (A) A protocol for preparation of a fibrosis model. (B) The mRNA expression analysis of an intestinal organoid in the cases of addition of TNF-α+TGF-β and TGF-β inhibitor (SB431542, Repsox). Average±S.D. (n=3). The mRNA expression level of the control was regarded as 1.
as §1
In order to reproduce fibrosis of a tissue in-vitro, which is developed by chronic inflammation in inflammatory bowel disease, TNF-α and TGF-β, each are reported as a main cause, were added for 48 hours from Day 34 after completion of differentiation induction (FIG. 8A). […]

CYP3A4 [4] = system: CYP3A4
CYP3A4 [5] = test: Inducibility of CYP3A4 in human intestinal organoid differentiated by using a polysaccharide polymer; details: VD3 1 μmol/L, 72 hours
[6] = 30 ng/mL TNF-α, 96 hours from Day 34

For infliximab: anti-TNF-α antibody, the “destruction of tight junction structure and increase of Caspase-3 positive cells (immunofluorescent staining)” value ([1]; 100 ng/mL infliximab with 30 ng/mL TNF-α, 96 hours) was “not found” and the “decrease/increase in expression (villin, MUC2, TNF-α) caused by TNF-α” value ([1]; 100 ng/mL infliximab with 30 ng/mL TNF-α, 96 hours from Day 34) was “suppressed”.

With `CC(=O)N1CCN(c2ccc(OCC3COC(Cn4ccnc4)(c4ccc(Cl)cc4Cl)O3)cc2)CC1` (stereo not drawn) [ketoconazole] the “midazolam's metabolic activity (CYP3A4)” value (CYP3A4 [2]) was “significantly inhibited”.

With `Cc1cccc(-c2[nH]ncc2-c2ccc3ncccc3n2)n1` [Repsox] the “decrease/increase in expression of fibrosis markers caused by TNF-α and TGF-β” value [3] was “suppressed”.

In the case of `C=C1/C(=C\C=C2/CCC[C@]3(C)[C@@H]([C@H](C)CCCC(C)(C)O)CC[C@@H]23)C[C@@H](O)C[C@@H]1O` [activated vitamin D3, 1α, 25-dihydroxy vitamin D3], the “mRNA expression level of CYP3A4 increased” value (CYP3A4 [4]) is reported as “about 1700 fold”, the “metabolic activity of midazolam” value (CYP3A4 [5]; 5 μmol/L midazolam, 24 hours) is reported as “significantly increased” and the “mRNA expression of CYP3A4” value (CYP3A4 [5]; compared to control group) is reported as “significantly induced”.

In the case of TNF-α, the “number of cells positive to Caspase-3” value ([1]; 30 ng/mL TNF-α, 96 hours) is reported as “increased”, the “tight junction structure (immunofluorescent staining)” value ([1]; 30 ng/mL TNF-α, 96 hours) is reported as “destroyed” and the “expression of TNF-α” value [1, 6] is reported as “increased”. For the same molecule, the “expressions of villin and MUC2 gene” value [1, 6] was “decreased”.

With `NC(=O)c1ccc(-c2nc(-c3ccc4c(c3)OCO4)c(-c3ccccn3)[nH]2)cc1` [SB431542] the “decrease/increase in expression of fibrosis markers caused by TNF-α and TGF-β” value [3] was “suppressed”.
